Legend:
Assay type in all cases: binding
CCR7 = target: T1, CCR7 (Homo sapiens, UniProt P32248); assay: NanoBRET screen HiBiT-CCR7 in HEK293; conditions: CCR7
T1 construct: purchased Promega (in-house HiBiT-GPCR construct library, NanoBRET)
T1 sequence (P32248 25-378): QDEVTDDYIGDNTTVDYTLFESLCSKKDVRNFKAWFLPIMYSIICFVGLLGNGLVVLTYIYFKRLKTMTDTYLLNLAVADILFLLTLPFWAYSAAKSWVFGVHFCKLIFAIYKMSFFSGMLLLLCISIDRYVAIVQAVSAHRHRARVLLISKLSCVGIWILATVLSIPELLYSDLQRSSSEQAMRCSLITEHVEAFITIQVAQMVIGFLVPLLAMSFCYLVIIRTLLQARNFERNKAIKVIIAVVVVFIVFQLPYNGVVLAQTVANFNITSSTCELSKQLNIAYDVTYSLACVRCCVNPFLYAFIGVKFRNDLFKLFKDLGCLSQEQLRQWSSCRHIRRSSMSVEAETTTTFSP
Outline: (§1)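 Two tracer concentrations (1 μM, 0.1 μM), 1.5 h RT, ± 20 μM parent competitor; HiBiT-GPCR in HEK293; LgBiT/furimazine 15 min; BRET 450 nm donor, 600 nm LP acceptor; fold over competed control, threshold 1.5.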

CXCR2 = target: T2, CXCR2 (Homo sapiens, UniProt P25025); assay: NanoBRET screen HiBiT-CXCR2 in HEK293; conditions: CXCR2
T2 construct: purchased Promega (in-house HiBiT-GPCR construct library, NanoBRET)
T2 sequence (P25025 1-360): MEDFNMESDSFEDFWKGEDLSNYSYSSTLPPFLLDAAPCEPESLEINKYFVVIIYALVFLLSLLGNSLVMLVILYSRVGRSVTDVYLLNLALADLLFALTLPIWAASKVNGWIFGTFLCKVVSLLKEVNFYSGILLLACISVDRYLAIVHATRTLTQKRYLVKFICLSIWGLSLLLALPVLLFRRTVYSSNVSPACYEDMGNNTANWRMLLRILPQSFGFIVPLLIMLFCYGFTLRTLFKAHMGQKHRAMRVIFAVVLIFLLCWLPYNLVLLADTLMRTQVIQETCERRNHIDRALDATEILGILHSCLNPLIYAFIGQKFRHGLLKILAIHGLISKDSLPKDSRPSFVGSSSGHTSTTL
Outline: as §1

PTAFR = target: T3, PTAFR (Homo sapiens, UniProt P25105); assay: NanoBRET screen HiBiT-PTAFR in HEK293; conditions: PTAFR
T3 construct: purchased Promega (in-house HiBiT-GPCR construct library, NanoBRET)
Outline: as §1

BRS3 = target: T4, BRS3 (Homo sapiens, UniProt P32247); assay: NanoBRET screen HiBiT-BRS3 in HEK293; conditions: BRS3
T4 construct: purchased Promega (in-house HiBiT-GPCR construct library, NanoBRET)
T4 sequence (P32247 1-399): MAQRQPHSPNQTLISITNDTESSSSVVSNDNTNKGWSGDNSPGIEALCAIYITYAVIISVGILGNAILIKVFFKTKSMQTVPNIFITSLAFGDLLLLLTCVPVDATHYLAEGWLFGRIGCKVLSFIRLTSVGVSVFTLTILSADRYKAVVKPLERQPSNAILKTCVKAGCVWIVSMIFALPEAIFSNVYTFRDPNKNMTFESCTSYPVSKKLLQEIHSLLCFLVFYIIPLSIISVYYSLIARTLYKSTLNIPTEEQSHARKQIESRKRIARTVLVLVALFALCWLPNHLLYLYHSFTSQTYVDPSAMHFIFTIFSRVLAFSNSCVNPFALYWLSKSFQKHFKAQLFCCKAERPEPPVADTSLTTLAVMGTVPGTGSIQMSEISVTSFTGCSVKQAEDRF
Outline: as §1

RXFP2 = target: T5, RXFP2 (Homo sapiens, UniProt Q8WXD0); assay: NanoBRET screen HiBiT-RXFP2 in HEK293; conditions: RXFP2
T5 construct: purchased Promega (in-house HiBiT-GPCR construct library, NanoBRET)
Outline: as §1

NPBWR2 = target: T6, NPBWR2 (Homo sapiens, UniProt P48146); assay: NanoBRET screen HiBiT-NPBWR2 in HEK293; conditions: NPBWR2
T6 construct: purchased Promega (in-house HiBiT-GPCR construct library, NanoBRET)
Outline: as §1

T6 sequence (P48146 whole entry): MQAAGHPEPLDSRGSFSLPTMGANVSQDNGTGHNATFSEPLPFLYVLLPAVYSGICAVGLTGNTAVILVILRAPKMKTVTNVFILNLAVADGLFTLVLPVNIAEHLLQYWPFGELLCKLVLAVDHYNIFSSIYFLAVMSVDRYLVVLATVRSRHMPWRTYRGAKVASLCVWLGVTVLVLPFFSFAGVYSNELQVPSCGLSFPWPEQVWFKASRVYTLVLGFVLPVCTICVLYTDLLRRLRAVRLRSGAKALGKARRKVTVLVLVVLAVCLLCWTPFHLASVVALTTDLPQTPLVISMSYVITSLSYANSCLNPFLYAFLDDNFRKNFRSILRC
T3 sequence (P25105 whole entry): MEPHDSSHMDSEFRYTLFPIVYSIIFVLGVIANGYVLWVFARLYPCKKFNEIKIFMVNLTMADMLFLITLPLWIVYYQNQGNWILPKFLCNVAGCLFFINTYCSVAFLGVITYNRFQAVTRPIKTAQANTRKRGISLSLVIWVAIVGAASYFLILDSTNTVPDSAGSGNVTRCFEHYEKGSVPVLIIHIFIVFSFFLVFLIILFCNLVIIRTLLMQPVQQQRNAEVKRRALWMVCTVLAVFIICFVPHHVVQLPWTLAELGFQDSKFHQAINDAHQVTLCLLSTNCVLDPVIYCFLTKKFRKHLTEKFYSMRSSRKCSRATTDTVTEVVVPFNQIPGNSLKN
T5 sequence (Q8WXD0 whole entry): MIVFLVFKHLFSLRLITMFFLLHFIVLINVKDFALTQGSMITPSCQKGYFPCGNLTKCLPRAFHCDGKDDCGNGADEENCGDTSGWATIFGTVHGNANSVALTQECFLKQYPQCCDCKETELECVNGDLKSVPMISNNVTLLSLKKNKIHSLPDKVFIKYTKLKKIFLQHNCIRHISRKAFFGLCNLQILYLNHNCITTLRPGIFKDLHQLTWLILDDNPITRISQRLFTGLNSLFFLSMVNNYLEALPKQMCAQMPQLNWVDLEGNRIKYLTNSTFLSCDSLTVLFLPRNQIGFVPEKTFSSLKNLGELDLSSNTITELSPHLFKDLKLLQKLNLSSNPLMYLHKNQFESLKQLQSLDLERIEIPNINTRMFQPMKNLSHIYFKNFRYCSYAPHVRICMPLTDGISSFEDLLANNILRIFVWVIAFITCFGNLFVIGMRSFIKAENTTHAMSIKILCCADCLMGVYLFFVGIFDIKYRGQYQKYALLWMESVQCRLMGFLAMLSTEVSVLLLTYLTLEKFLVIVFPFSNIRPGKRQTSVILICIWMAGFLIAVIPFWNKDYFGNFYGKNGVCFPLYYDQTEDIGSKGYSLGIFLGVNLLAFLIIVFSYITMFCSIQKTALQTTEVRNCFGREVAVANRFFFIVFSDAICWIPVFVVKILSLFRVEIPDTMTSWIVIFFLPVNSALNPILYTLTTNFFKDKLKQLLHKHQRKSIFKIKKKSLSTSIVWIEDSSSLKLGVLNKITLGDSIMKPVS

CN1CCN(C2=Nc3cc(Cl)ccc3Nc3ccc(CNC(=O)CCOCCOCCOCCOCCNC(=O)CCc4ccc5n4[B-](F)(F)[N+]4=C(c6ccc[nH]6)C=CC4=C5)cc32)CC1 [Clozapine-b-2-NB590]
NanoBRET Fold Response (CCR7; 0.1μM tracer): 1.00
NanoBRET Fold Response (CXCR2; 0.1μM tracer): 0.98
NanoBRET Fold Response (CXCR2; 1μM tracer): 1.06
NanoBRET Fold Response (PTAFR; 0.1μM tracer): 1.01
NanoBRET Fold Response (PTAFR; 1μM tracer): 1.14
NanoBRET Fold Response (BRS3; 0.1μM tracer): 1.01
NanoBRET Fold Response (BRS3; 1μM tracer): 1.02
NanoBRET Fold Response (RXFP2; 0.1μM tracer): 1.04
NanoBRET Fold Response (NPBWR2; 0.1μM tracer): 0.99
NanoBRET Fold Response (NPBWR2; 1μM tracer): 1.08

Cc1nc2n(c(=O)c1CCN1CCC(c3noc4cc(F)ccc34)CC1)CCCC2OC(=O)NCCOCCOCCOCCOCCNC(=O)CCc1ccc2n1[B-](F)(F)[N+]1=C(c3ccc[nH]3)C=CC1=C2 (stereo not drawn) [Risperidone-2-NB590]
NanoBRET Fold Response (CCR7; tracer 0.1μM): 1.00
NanoBRET Fold Response (CCR7; tracer 1μM): 1.04
NanoBRET Fold Response (CXCR2; tracer 0.1μM): 1.09
NanoBRET Fold Response (CXCR2; tracer 1μM): 0.99
NanoBRET Fold Response (PTAFR; tracer 0.1μM): 1.00
NanoBRET Fold Response (PTAFR; tracer 1μM): 1.10
NanoBRET Fold Response (BRS3; tracer 0.1μM): 0.95
NanoBRET Fold Response (BRS3; tracer 1μM): 0.98
NanoBRET Fold Response (RXFP2; tracer 0.1μM): 1.20
NanoBRET Fold Response (NPBWR2; tracer 0.1μM): 1.05
NanoBRET Fold Response (NPBWR2; tracer 1μM): 1.00
